Read-outs that look alike come from different tables or passages of the source.
Legend:
[1] = system: carbachol (5x10⁻⁶M) induced muscle contraction; experiment: Carbachol mediated muscle contractions of rabbit bladder muscle strips; format: cell-based; conditions: GABA: 10 strips, not in 6 strips, baclofen: 6 strips, not in 3 strips
[2] = system: Rabbit urinary bladder smooth muscle strips; experiment: Nerve mediated contractions of rabbit urinary bladder muscle strips induced by electrical field stimulation; format: cell-based; conditions: for effect on the frequency response curve: 1 to 40 Hz

**Q.** For NCC(CC(=O)O)c1ccc(Cl)cc1 (racemic) [(±) baclofen], which “inhibition of carbachol induced muscle contraction” value [1] is on record?
**A.** Its value is “able to inhibit the muscle contraction”.

**Q.** And the “EC₅₀ for inhibition of muscle contraction induced by electrical field stimulation” value [2]?
**A.** The value was 7.26 (±1.2)x10⁻⁶ M.

**Q.** What about the “maximum inhibition of muscle contraction induced by electrical field stimulation” value [2] of the same molecule?
**A.** The value was 26.5(±1.58) %.

**Q.** What about the “effect on the frequency response curve” value ([2]; 1x10⁻⁴M baclofen, n=13) of the same molecule?
**A.** The value was “significant inhibitory effect”.

**Q.** What does the source list for NCC(O)(CS(=O)(=O)O)c1ccc(Cl)cc1 (centres unmarked) [2-hydroxysaclofen]?
**A.** antagonism of the inhibition produced by GABA (change of EC₅₀) [2]: significant antagonism; change in the maximum response of GABA [2]: no significant difference

**Q.** Which results are given for NCCCP(O)O [3-aminopropylphosphonous acid]?
**A.** EC50 ([2]; Oryctolagus cuniculus, average over seven experiments, preliminary experiments, read-out: EC₅₀ for inhibition of electrically stimulated contraction): 0.25 ± 0.16 µM; maximum inhibition of muscle contraction induced by electrical field stimulation ([2]; percentage inhibition of control contraction, 10 Hz, 0.2 ms pulse width, 30V for 3 s, mean ± S.E.M.): 45 ± 18%

**Q.** NCCCC(=O)O [GABA, gamma amino butyric acid] was tested. Which “effect on the frequency response curve” value ([2]; 1x10⁻⁵ GABA, n=15) did it give?
**A.** The value was “significant right shift”.

**Q.** Which “inhibitory effect on nerve mediated muscle contraction” value ([2]; concentration range of 1x10⁻⁸ to 1x10⁻⁵M, n=5) does the source give for NCc1cc(=O)[nH]o1 [Muscimol, muscimol] here?
**A.** Its value is “no inhibitory effect”.

**Q.** How did the “effect on contractions obtained by electrical field stimulation” value [2] turn out when NC1=N[C@H](O)[C@H]2[C@H]3O[C@]4(O)O[C@@H]([C@@H](O)[C@@]2(N1)[C@@H]4O)[C@]3(O)CO [tetrodotoxin] was run?
**A.** The value was “abolishing the contractions”.
